The text below walks through data of ChEMBL document CHEMBL1141039, “Hepatitis C virus NS3-4A serine protease inhibitors: SAR of P'2 moiety with improved potency” (Bioorg Med Chem Lett, 2005).

Numbered stars: 1 amine (or outer) side, 2 acyl side, 3 side chain; on linkers, the order of the positions; unused ones are H or OH. Square brackets hold non-standard residues; d marks the D form. Peptide text beside a SMILES is read from it. * marks the point of attachment. Gly(piperidin-4-yl) = N[C@H](C(=O)O)C1CCNCC1; 2Nal = N[C@@H](Cc1ccc2ccccc2c1)C(=O)O; Isobutyloxycarbonyl = CC(C)COC(=O)*; Gly(cPent) = N[C@H](C(=O)O)C1CCCC1; X1 = CCCC(N[*:1])C(=O)C(=O)[*:2]; hPhe = N[C@@H](CCc1ccccc1)C(=O)O; Aad = N[C@@H](CCCC(=O)O)C(=O)O; Cha = N[C@@H](CC1CCCCC1)C(=O)O; Chg = N[C@H](C(=O)O)C1CCCCC1; Phg = N[C@H](C(=O)O)c1ccccc1; Tle = CC(C)(C)[C@H](N)C(=O)O; hSer = N[C@@H](CCO)C(=O)O; Nle = CCCC[C@H](N)C(=O)O; Boc = CC(C)(C)OC(=O)*; OBn = c1ccc(CO*)cc1; Bn = c1ccc(C*)cc1; OtBu = CC(C)(C)O*; tBu = CC(C)(C)* A value given as a limit tells only on which side of the number the result lay.

The target in the assay is NS3 (Hepatitis C virus, UniProt A3EZJ3). Briefly: Inhibitory activity against Hepatitis C virus NS3 serine protease in continuous spectrophotometric assay. The arrangement: species or system Hepacivirus hominis.
Chain of NS3 (A3EZJ3 whole entry): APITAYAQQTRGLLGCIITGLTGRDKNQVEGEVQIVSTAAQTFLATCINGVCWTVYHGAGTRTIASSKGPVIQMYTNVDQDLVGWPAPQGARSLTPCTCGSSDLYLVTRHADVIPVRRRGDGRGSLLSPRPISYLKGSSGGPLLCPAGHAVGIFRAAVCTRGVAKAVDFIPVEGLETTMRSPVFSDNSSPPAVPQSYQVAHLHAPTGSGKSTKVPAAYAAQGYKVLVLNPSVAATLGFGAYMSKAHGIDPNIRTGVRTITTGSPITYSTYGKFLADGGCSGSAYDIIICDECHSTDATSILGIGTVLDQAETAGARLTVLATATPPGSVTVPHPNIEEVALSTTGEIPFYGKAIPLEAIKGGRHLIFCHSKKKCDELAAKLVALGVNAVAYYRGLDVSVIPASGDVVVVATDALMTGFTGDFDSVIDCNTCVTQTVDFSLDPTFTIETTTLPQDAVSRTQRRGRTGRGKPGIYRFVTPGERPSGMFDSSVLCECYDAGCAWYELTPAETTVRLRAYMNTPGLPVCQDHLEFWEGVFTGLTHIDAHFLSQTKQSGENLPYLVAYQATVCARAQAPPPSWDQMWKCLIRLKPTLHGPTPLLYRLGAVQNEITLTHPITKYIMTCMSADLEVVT
For the molecule `CCCC(NC(=O)[C@H](CC(C)C)NC(=O)[C@@H](NC(=O)OCC(C)C)C1CCCCC1)C(=O)C(=O)NCC(=O)N[C@H](C(=O)O)C1CCN(C(=O)OC(C)(C)C)CC1` (some centres not stated), the Ki was 3.3 µM.

`CCCC(NC(=O)[C@H](CC(C)C)NC(=O)[C@@H](NC(=O)OC(C)(C)C)C1CCCCC1)C(=O)C(=O)NCC(=O)NCc1ccccc1` (some centres not stated): the Ki was 81 µM.

On to `CCCC(NC(=O)[C@@H]1CCCN1C(=O)[C@@H](NC(=O)OC(C)(C)C)C1CCCCC1)C(=O)C(=O)NCC(=O)NCc1ccccc1` (some centres not stated), for which the affinity corresponds to a Ki of 45 µM.

`CCCC(NC(=O)[C@H](CC(C)C)NC(=O)[C@@H](NC(=O)OC(C)(C)C)C1CCCCC1)C(=O)C(=O)NCC(=O)N[C@H](C(=O)OCc1ccccc1)c1ccccc1` (some centres not stated) (Boc-[Chg]L[X1]G[Phg]-OBn) came in with a Ki of 0.6 µM. Compared with the last molecule, the Ki is about 75-fold lower.

As to `CCCC(NC(=O)[C@H](CC(C)C)NC(=O)[C@@H](NC(=O)OC(C)(C)C)C1CCCCC1)C(=O)C(=O)NCC(=O)N[C@H](C(=O)O)c1ccccc1` (some centres not stated) (Boc-[Chg]L[X1]G[Phg]-OH), the affinity, expressed as Ki, was 0.098 µM.

In turn, `CCCC(NC(=O)[C@@H]1CCCN1C(=O)[C@@H](NC(=O)OCC(C)C)C(C)C)C(=O)C(=O)NCC(=O)N[C@@H](CC(=O)OC)C(=O)OC` (some centres not stated) (Isobutyloxycarbonyl-VP[X1]GD(OMe)-OMe) returned a Ki of 55 µM.

On to `CCCC(NC(=O)[C@@H]1CCCN1C(=O)[C@@H](NC(=O)OCC(C)C)C(C)C)C(=O)C(=O)NCC(=O)N[C@@H](CC(=O)O)C(=O)O` (some centres not stated) (Isobutyloxycarbonyl-VP[X1]GD-OH), for which the inhibition constant (Ki) was above 100 µM.

Molecule `CCCC(NC(=O)[C@@H]1CCCN1C(=O)[C@@H](NC(=O)OCC(C)C)C(C)C)C(=O)C(=O)NCC(=O)N[C@@H](CCC(=O)OCC)C(=O)OC` (some centres not stated) (Isobutyloxycarbonyl-VP[X1]GE(OEt)-OMe) returned a Ki of 20 µM.

With `CCCC(NC(=O)[C@@H]1CCCN1C(=O)[C@@H](NC(=O)OCC(C)C)C(C)C)C(=O)C(=O)NCC(=O)N[C@@H](CCC(=O)O)C(=O)O` (some centres not stated) (Isobutyloxycarbonyl-VP[X1]GE-OH), the Ki was above 100 µM.

`CCCC(NC(=O)[C@@H]1CCCN1C(=O)[C@@H](NC(=O)OCC(C)C)C(C)C)C(=O)C(=O)NCC(=O)N[C@@H](Cc1ccccc1)C(N)=O` (some centres not stated) (Isobutyloxycarbonyl-VP[X1]GF-NH2) yielded a Ki of 15 µM. In other words, the double-digit micromolar range.

For `CCCC(NC(=O)[C@@H]1CCCN1C(=O)[C@@H](NC(=O)OCC(C)C)C(C)C)C(=O)C(=O)NCC(=O)N[C@H](C(=O)O)[C@@H](C)CC` (some centres not stated) (Isobutyloxycarbonyl-VP[X1]GI-OH), the inhibitory constant (Ki) was 15 µM.

On to `CCCC(NC(=O)[C@@H]1CCCN1C(=O)[C@@H](NC(=O)OCC(C)C)C(C)C)C(=O)C(=O)NCC(=O)N[C@H](C(=O)OC)[C@@H](C)CC` (some centres not stated) (Isobutyloxycarbonyl-VP[X1]GI-OMe), for which the Ki is 15 µM.

`CCCC(NC(=O)[C@@H]1CCCN1C(=O)[C@@H](NC(=O)OCC(C)C)C(C)C)C(=O)C(=O)NCC(=O)N[C@@H](CCCCN)C(N)=O` (some centres not stated) (Isobutyloxycarbonyl-VP[X1]GK-NH2) yielded a Ki of 82 µM.

`CCCC(NC(=O)[C@@H]1CCCN1C(=O)[C@@H](NC(=O)OCC(C)C)C(C)C)C(=O)C(=O)NCC(=O)N[C@@H](CC(C)C)C(N)=O` (some centres not stated) (Isobutyloxycarbonyl-VP[X1]GL-NH2): the affinity, expressed as Ki, was 16 µM.

Turning to `CCCC(NC(=O)[C@@H]1CCCN1C(=O)[C@@H](NC(=O)OCC(C)C)C(C)C)C(=O)C(=O)NCC(=O)N[C@@H](COCc1ccccc1)C(N)=O` (some centres not stated) (Isobutyloxycarbonyl-VP[X1]GS(Bn)-NH2), the Ki turned out to be 3.5 µM. This Ki is about 4.6-fold lower than that of the molecule before.

Consider `CCCC(NC(=O)[C@@H]1CCCN1C(=O)[C@@H](NC(=O)OCC(C)C)C(C)C)C(=O)C(=O)NCC(=O)N[C@@H](Cc1ccc2ccccc2c1)C(N)=O` (some centres not stated) (Isobutyloxycarbonyl-VP[X1]G[2Nal]-NH2), for which the affinity, expressed as Ki, was 12 µM.

Take `CCCC(NC(=O)[C@@H]1CCCN1C(=O)[C@@H](NC(=O)OCC(C)C)C(C)C)C(=O)C(=O)NCC(=O)N[C@@H](CCCC(=O)O)C(N)=O` (some centres not stated) (Isobutyloxycarbonyl-VP[X1]G[Aad]-NH2): affinity was put at a Ki of 18 µM. This Ki is about 1.5-fold higher than that of the molecule before.

`CCCC(NC(=O)[C@@H]1CCCN1C(=O)[C@@H](NC(=O)OCC(C)C)C(C)C)C(=O)C(=O)NCC(=O)N[C@@H](CC1CCCCC1)C(N)=O` (some centres not stated) (Isobutyloxycarbonyl-VP[X1]G[Cha]-NH2) came in with a Ki of 8 µM. This Ki lies about 2.2-fold lower than the previous one.

Consider `CCCC(NC(=O)[C@@H]1CCCN1C(=O)[C@@H](NC(=O)OCC(C)C)C(C)C)C(=O)C(=O)NCC(=O)N[C@H](C(N)=O)C1CCCCC1` (some centres not stated) (Isobutyloxycarbonyl-VP[X1]G[Chg]-NH2), for which the affinity, expressed as Ki, was 2.6 µM. This Ki is about 3.1-fold lower than that of the molecule before.

`CCCC(NC(=O)[C@@H]1CCCN1C(=O)[C@@H](NC(=O)OCC(C)C)C(C)C)C(=O)C(=O)NCC(=O)N[C@H](C(N)=O)c1ccccc1` (some centres not stated) (Isobutyloxycarbonyl-VP[X1]G[Phg]-NH2) came in with a Ki of 2.1 µM.

In the case of `CCCC(NC(=O)[C@@H]1CCCN1C(=O)[C@@H](NC(=O)OCC(C)C)C(C)C)C(=O)C(=O)NCC(=O)N[C@H](C(N)=O)C(C)(C)C` (some centres not stated) (Isobutyloxycarbonyl-VP[X1]G[Tle]-NH2), the affinity, expressed as Ki, was 53 µM.

As for `CCCC(NC(=O)[C@@H]1CCCN1C(=O)[C@@H](NC(=O)OCC(C)C)C(C)C)C(=O)C(=O)NCC(=O)N[C@@H](CCc1ccccc1)C(N)=O` (some centres not stated) (Isobutyloxycarbonyl-VP[X1]G[hPhe]-NH2), the Ki was determined as 6.7 µM.

Turning to `CCCC(NC(=O)[C@@H]1CCCN1C(=O)[C@@H](NC(=O)OCC(C)C)C(C)C)C(=O)C(=O)NCC(=O)N[C@@H](CCO)C(N)=O` (some centres not stated) (Isobutyloxycarbonyl-VP[X1]G[hSer]-NH2), the Ki amounted to 111 µM.

`CCCC(NC(=O)[C@H](CC(C)C)NC(=O)[C@@H](NC(=O)OCC(C)C)C1CCCCC1)C(=O)C(=O)NCC(=O)N[C@@H](CC(=O)O)C(N)=O` (some centres not stated) (Isobutyloxycarbonyl-[Chg]L[X1]GD-NH2) yielded a Ki of 8.4 µM. Against the preceding molecule, the Ki is about 13-fold lower.

`CCCC(NC(=O)[C@H](CC(C)C)NC(=O)[C@@H](NC(=O)OCC(C)C)C1CCCCC1)C(=O)C(=O)NCC(=O)N[C@@H](COC(C)(C)C)C(N)=O` (some centres not stated) (Isobutyloxycarbonyl-[Chg]L[X1]GS(tBu)-NH2): the inhibition constant Ki amounted to 0.46 µM.

Molecule `CCCC(NC(=O)[C@H](CC(C)C)NC(=O)[C@@H](NC(=O)OCC(C)C)C1CCCCC1)C(=O)C(=O)NCC(=O)N[C@H](C(N)=O)C(C)C` (some centres not stated) (Isobutyloxycarbonyl-[Chg]L[X1]GV-NH2) returned a Ki of 2.6 µM.

On to `CCCC(NC(=O)[C@H](CC(C)C)NC(=O)[C@@H](NC(=O)OCC(C)C)C1CCCCC1)C(=O)C(=O)NCC(=O)N[C@H](C(=O)O)C1CCCC1` (some centres not stated) (Isobutyloxycarbonyl-[Chg]L[X1]G[Gly(cPent)]-OH), for which the Ki came to 0.33 µM.

For `CCCC(NC(=O)[C@H](CC(C)C)NC(=O)[C@@H](NC(=O)OCC(C)C)C1CCCCC1)C(=O)C(=O)NCC(=O)N[C@H](C(=O)O)C1CCNCC1` (some centres not stated) (Isobutyloxycarbonyl-[Chg]L[X1]G[Gly(piperidin-4-yl)]-OH), the affinity corresponds to a Ki of 6.4 µM.

Molecule `CCCC[C@H](NC(=O)CNC(=O)C(=O)C(CCC)NC(=O)[C@H](CC(C)C)NC(=O)[C@@H](NC(=O)OCC(C)C)C1CCCCC1)C(N)=O` (some centres not stated) (Isobutyloxycarbonyl-[Chg]L[X1]G[Nle]-NH2) came in with a Ki of 0.28 µM. Compared with the last molecule, the Ki is about 23-fold lower.

The molecule `CCCC(NC(=O)[C@H](CC(C)C)NC(=O)[C@@H](NC(=O)OCC(C)C)C1CCCCC1)C(=O)C(=O)NCC(=O)N[C@H](C(=O)O)c1ccccc1` (some centres not stated) (Isobutyloxycarbonyl-[Chg]L[X1]G[Phg]-OH) yielded a Ki of 0.12 µM.

The molecule `CCCC(NC(=O)[C@H](CC(C)C)NC(=O)[C@@H](NC(=O)OCC(C)C)C1CCCCC1)C(=O)C(=O)NCC(=O)N[C@H](C(=O)OC(C)(C)C)c1ccccc1` (some centres not stated) (Isobutyloxycarbonyl-[Chg]L[X1]G[Phg]-OtBu) registered a Ki of 0.65 µM.

In turn, `CCCC(NC(=O)[C@@H]1CCCN1C(=O)[C@@H](NC(=O)OCC(C)C)C1CCCCC1)C(=O)C(=O)NCC(=O)N[C@H](C(N)=O)c1ccccc1` (some centres not stated) (Isobutyloxycarbonyl-[Chg]P[X1]G[Phg]-NH2) registered a Ki of 0.36 µM.
